Among the data in ChEMBL document CHEMBL5465560, “Selectivity Literature for EUbOPEN Chemogenomic Library” (2024) are % of control, % of engagement and % of inhibition values, retold here.

In assay [1] the target is Ribosomal protein S6 kinase alpha-5 (Homo sapiens) (UniProt O75582). The assay can be described thus: Selectivity interaction (Kinase panel (Z-LYTE Assay)) EUB0001632a RPS6KA5. The settings on record: at 10 µM.
The target in assay [2] is RAF proto-oncogene serine/threonine-protein kinase (Homo sapiens) (UniProt P04049). The assay can be described thus: Selectivity interaction (Kinase panel (KiNativ target engagement assay in Jurkat cells)) EUB0001635a RAF1. Type of assay: cell-based. The settings on record: Selectivity number of off-targets 0.0, Selectivity number of targets 233.0, Source Knowledge https://www.sciencedirect.com/science/article/pii/S2451945619300674?via%3Dihub, at 1 µM.

In assay [3] the target is T1, Mitogen-activated protein kinase 13 (Homo sapiens) (UniProt O15264).
T1 sequence (whole entry): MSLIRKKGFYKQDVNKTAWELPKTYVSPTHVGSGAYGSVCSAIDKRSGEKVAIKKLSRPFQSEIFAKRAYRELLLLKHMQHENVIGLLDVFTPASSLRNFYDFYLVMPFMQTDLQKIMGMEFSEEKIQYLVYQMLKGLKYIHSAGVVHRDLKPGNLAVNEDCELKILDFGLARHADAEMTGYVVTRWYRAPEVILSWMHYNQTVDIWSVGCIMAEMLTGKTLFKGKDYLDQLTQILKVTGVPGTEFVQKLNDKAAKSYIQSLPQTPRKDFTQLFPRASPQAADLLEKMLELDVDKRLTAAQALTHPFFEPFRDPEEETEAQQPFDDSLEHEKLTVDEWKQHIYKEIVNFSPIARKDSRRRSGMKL
The assay can be described thus: Selectivity interaction (SelectScreen profiling (Invitrogen)) EUB0000607a MAPK13. Particulars: at 2 µM.

For assay [4], the target named is Calcium/calmodulin-dependent protein kinase type II subunit delta (Homo sapiens) (UniProt Q13557). The assay can be described thus: Selectivity interaction (SelectScreen profiling (Invitrogen)) EUB0000607a CAMK2D. Particulars: at 2 µM.
Assay [5] addresses T2, RAC-alpha serine/threonine-protein kinase (Homo sapiens, UniProt P31749). The assay can be described thus: Selectivity interaction (KinomeScan (DiscoverX)) EUB0000666a AKT1. Particulars: at 10 µM.
In assay [6] the target is T3, Kinase suppressor of Ras 1 (Homo sapiens) (UniProt Q8IVT5).
T3 sequence (whole entry): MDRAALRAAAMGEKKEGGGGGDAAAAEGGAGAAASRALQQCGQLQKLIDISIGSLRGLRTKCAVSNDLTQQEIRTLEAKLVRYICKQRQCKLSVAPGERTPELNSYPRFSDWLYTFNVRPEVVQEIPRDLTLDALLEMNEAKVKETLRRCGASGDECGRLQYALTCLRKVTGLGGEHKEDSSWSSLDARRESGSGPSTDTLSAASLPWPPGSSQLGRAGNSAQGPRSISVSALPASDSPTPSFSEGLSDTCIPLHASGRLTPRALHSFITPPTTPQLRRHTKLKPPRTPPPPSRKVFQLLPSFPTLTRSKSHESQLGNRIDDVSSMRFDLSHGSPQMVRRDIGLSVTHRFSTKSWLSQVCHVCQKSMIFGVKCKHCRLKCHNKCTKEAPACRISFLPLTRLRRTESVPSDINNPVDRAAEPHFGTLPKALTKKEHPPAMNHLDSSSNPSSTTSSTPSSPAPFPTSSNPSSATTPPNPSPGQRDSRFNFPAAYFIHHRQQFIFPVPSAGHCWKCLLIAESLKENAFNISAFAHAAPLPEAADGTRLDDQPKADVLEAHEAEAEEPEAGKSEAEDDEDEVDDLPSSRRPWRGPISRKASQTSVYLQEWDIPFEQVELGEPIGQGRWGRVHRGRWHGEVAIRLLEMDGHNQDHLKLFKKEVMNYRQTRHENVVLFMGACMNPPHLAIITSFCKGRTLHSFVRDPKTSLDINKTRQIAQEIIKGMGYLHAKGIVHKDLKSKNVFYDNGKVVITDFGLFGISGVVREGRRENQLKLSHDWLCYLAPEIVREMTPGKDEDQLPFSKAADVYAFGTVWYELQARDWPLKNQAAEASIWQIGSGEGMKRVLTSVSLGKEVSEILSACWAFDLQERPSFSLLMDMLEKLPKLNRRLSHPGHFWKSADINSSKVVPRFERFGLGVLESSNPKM
The assay can be described thus: Selectivity interaction (ActivX KiNativ screen (ex vivo kinase selectivity in human PBMCs)) EUB0001619a KSR1. The format is cell-based. Particulars: PBMC, at 1 µM.

Assay [7] concerns the target Diacylglycerol kinase beta (Homo sapiens) (UniProt Q9Y6T7). The assay can be described thus: Selectivity interaction (Kinase panel (literature)) EUB0001199aCl DGKB. Particulars: at 1 µM.
Assay [8] concerns the target [Pyruvate dehydrogenase (acetyl-transferring)] kinase isozyme 1, mitochondrial (Homo sapiens, UniProt Q15118). The experiment in a line: Selectivity interaction (Kinase panel (Invitrogen)) EUB0000639a PDK1. Particulars: at 200 nM.
Assay [9] deals with Ribosomal protein S6 kinase alpha-3 (Homo sapiens, UniProt P51812). The assay can be described thus: Selectivity interaction (ActivX KiNativ screen (kinase selectivity in THP-1 cell lysates)) EUB0000639a RPS6KA3. The format is subcellular. Particulars: lysate, at 1 µM.
Assay [10] concerns the target Dual specificity protein kinase CLK2 (Homo sapiens, UniProt P49760). The experiment in a line: Selectivity interaction (KinomeScan (DiscoverX)) EUB0001049a CLK2. Particulars: at 1 µM.
Assay [11] addresses T2, RAC-alpha serine/threonine-protein kinase. The assay can be described thus: Selectivity interaction (Upstate Kinase Profiler service (Millipore)) EUB0000056c AKT1. The settings on record: at 1 µM.

T2 sequence (P31749 whole entry): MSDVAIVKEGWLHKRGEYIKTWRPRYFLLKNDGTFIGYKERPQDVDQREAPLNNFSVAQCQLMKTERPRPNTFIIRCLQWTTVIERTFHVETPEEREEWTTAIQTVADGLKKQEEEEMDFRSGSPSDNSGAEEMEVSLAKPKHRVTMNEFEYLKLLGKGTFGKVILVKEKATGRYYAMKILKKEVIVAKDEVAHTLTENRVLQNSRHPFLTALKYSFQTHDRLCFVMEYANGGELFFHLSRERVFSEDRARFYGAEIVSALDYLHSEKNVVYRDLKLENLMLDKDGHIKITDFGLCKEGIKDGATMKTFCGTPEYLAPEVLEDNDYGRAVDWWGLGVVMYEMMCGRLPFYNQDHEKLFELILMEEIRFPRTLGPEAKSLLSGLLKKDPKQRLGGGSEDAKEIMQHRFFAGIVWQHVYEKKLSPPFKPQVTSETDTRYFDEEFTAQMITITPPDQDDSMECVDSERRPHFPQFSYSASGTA
Sequence of Dual specificity protein kinase CLK2 (P49760 whole entry, looked up): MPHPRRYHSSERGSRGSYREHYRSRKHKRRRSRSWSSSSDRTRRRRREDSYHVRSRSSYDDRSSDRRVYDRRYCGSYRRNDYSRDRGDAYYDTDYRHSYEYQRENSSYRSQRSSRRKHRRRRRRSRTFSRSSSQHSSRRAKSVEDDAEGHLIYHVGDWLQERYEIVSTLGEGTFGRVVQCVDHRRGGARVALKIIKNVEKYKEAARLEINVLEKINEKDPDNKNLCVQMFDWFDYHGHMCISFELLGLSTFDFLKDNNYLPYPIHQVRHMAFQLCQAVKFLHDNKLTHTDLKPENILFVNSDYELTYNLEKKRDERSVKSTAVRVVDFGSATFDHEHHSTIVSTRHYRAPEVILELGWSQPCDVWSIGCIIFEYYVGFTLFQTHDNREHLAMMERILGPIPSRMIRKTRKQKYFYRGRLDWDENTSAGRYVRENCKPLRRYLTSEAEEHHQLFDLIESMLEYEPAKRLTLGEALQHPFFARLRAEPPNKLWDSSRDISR
Sequence of Ribosomal protein S6 kinase alpha-5 (Homo sapiens) (O75582 whole entry, looked up): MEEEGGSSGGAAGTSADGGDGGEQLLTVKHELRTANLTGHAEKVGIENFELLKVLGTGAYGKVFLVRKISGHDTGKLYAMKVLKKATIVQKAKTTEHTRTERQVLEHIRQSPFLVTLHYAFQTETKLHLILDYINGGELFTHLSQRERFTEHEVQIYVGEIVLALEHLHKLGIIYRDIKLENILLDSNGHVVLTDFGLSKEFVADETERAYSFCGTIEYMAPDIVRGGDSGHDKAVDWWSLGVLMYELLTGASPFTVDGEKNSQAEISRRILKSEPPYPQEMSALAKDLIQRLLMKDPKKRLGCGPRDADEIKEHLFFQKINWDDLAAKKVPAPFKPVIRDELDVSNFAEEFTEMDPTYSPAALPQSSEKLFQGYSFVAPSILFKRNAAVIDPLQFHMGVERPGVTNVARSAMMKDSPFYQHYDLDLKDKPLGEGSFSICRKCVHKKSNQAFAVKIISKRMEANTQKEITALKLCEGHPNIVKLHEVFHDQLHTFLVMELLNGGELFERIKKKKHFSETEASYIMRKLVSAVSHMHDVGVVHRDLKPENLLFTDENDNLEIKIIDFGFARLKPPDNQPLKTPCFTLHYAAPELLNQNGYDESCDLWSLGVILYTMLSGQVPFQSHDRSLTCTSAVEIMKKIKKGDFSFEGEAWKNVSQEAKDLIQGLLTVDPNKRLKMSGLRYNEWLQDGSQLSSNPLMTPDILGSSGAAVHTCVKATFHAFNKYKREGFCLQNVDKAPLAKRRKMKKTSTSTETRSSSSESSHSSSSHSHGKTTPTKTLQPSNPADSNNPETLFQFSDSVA
Sequence of Calcium/calmodulin-dependent protein kinase type II subunit delta (Homo sapiens) (Q13557 whole entry): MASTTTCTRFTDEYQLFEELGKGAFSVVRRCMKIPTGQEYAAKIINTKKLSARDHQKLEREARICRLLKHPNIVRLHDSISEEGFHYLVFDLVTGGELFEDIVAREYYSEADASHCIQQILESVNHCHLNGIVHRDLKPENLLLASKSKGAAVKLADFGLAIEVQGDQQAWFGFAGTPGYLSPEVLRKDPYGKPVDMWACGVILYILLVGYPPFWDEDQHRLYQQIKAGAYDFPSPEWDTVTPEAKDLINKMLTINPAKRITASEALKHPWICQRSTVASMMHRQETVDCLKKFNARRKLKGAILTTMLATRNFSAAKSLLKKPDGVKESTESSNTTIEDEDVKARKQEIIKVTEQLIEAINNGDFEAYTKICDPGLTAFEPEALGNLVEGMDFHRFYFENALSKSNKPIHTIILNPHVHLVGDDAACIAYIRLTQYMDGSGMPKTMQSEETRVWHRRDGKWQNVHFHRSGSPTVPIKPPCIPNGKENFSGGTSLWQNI
Sequence of Ribosomal protein S6 kinase alpha-3 (P51812 whole entry): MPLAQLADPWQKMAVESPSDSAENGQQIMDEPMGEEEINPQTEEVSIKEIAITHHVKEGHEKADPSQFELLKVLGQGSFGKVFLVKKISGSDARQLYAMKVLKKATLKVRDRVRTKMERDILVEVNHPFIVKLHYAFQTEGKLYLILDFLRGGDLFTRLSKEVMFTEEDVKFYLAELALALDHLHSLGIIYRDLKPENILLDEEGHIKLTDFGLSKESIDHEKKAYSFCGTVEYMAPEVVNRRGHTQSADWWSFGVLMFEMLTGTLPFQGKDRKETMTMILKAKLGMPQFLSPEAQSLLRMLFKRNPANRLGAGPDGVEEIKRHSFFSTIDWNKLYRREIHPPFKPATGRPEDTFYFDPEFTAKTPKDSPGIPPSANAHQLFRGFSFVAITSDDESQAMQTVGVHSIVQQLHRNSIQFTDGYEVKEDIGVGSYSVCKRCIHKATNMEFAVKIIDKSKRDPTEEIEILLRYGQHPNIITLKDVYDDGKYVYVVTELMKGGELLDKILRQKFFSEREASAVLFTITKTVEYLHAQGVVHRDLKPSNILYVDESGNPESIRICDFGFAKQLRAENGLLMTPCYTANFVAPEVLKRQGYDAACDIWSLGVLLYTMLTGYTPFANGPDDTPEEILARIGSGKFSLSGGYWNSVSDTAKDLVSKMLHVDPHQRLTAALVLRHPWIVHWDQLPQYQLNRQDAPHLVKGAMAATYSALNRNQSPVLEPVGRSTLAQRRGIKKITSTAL
Sequence of RAF proto-oncogene serine/threonine-protein kinase (Homo sapiens) (P04049 whole entry): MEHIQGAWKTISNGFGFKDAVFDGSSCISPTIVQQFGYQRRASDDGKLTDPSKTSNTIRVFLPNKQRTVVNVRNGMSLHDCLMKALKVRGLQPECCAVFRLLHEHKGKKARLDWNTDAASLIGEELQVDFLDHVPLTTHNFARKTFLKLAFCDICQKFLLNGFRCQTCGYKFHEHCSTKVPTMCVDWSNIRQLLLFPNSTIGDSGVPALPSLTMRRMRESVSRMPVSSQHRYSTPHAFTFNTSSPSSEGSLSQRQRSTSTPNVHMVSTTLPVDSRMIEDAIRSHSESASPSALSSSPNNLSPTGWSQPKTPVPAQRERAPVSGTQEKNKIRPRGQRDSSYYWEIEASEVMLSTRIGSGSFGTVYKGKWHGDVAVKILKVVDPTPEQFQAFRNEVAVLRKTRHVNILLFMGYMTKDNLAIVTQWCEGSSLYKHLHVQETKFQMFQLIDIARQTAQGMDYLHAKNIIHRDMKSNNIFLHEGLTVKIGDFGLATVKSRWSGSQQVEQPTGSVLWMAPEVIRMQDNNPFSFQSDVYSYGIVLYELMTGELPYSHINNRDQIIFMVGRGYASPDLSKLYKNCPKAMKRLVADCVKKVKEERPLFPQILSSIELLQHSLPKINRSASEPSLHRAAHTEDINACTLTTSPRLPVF

With `Cn1cc(-n2cnc3c(NCc4nc5cc(Cl)c(Cl)cc5[nH]4)nc(N4CCOCC4)nc32)cn1`, in [1], the % of control came out at 0.545%. As for `C=CC(=O)Nc1ccc(C(=O)Nc2[nH]nc3c2CN(C(=O)N[C@H](CN(C)C)c2ccccc2)C3(C)C)cc1`, in [2], the % of engagement was -6.3%.

As to `CNC(=O)Nc1ccc(-c2nc(N3CC4CCC(C3)O4)c3cnn(C4CCC5(CC4)OCCO5)c3n2)cc1`, the results for the % of inhibition in assay [3] and in assay [4] were 4% and 11%, respectively. Regarding `O=C(NOC[C@H](O)CO)c1ccc(F)c(F)c1Nc1ccc(I)cc1F`, in assay [5], the % of control was determined as 81%.

Take `N#Cc1cccc(-c2c[nH]c3ncnc(N4CCOCC4)c23)c1`: in assay [6], the % of inhibition came to 12%.

As for `CN1Cc2nccc(-c3cn(C)nc3-c3ccc(F)cc3)c2C1=O`, the % of inhibition in assay [7] was -9%. As for `CC[C@@H]1[C@H](F)C(=O)N[C@@H]1COc1nccc2cc(C(N)=O)c(OC)cc12` [ZIMLOVISERTIB], the % of inhibition in assay [8] was determined as 15.8%; in assay [9], 0.1%. Turning to `COc1cc(Nc2nc(C)cc(-c3cnn4nc(OC)ccc34)n2)cc(C(F)(F)F)c1`, the % of control in assay [10] came out at 96%. Consider `Cc1ccc(-c2ccc3c(ccc4sc5c(c43)NC[C@@H](C)NC5=O)n2)cn1`, for which the % of inhibition in [11] was -3%.
